Source: patent US20260347309A1 (priority 2022, published 2026)

Legend:
[1] = cited from earlier work
[2] = system: murine and human cell lines engineered to express HPV16 E5; assay: cell cycle arrest in cell lines engineered to express HPV16 E5; assay type: cell-based; conditions: cells expressing HPV16 E5
Description: (§1) Cell cycle progression was analyzed on the basis of BrdU incorporation following […] cell staining with BrdU-APC and 7-AAD using BD Pharmingen BrdU Flow Kit. (BD, Franklin Lakes, NJ) according to the manufacture's protocol. Cells are analyzed using flow cytometry. Cell proliferation is assessed by using MTT [3-(4,5-dimethylthiazol-2-yl)-2,5-diphenyltetrazolium bromide]. First, cells are seeded in 96-well plate and cultured for 2-3 days. Next, culture media is replaced with fresh media containing 0.5 mg/ml of MTT (Sigma) and the plates are incubated for 4 hours at 37 °C. Then, purple formazan crystals are dissolved in lysis buffer (4 mM HCl and 0.1% NP-40 in isopropanol) and the absorbance is recorded on a TECAN infiniteM200 microplate reader (Tecan, Männedorf, Switzerland) at a wavelength of 570 nm with absorbance at 650 nm as reference.

MHC class I = MHC class I surface expression on RAW264.7
MHC class II = MHC class II surface expression on RAW264.7
[3] = system: B16-OVA cells / B3Z cells; assay: B3Z activation assay, recognition of OVA model tumor antigen on B16-OVA cells; assay type: cell-based; conditions: B16-OVA cells treated (100 μM, 24 hours) then B3Z co-culture 24 h; read-out: increase in recognition of model tumor antigen by B3Z cells
Description: B16-OVA cells are seeded into a 96-well plate and treated with 100 μM […], […] or racemic rimantadine for 24 hours, prior to addition of B3Z cells. After 24 hours of co-culture, medium is removed and 100 μl of lysis buffer [0.155 mM chlorophenol red β-D-galactopyranoside (CPRG) (Roche), 0.125% Nonidet P-40 Alternative (EMDCalbiochem), and 9 mM MgCl2 (Sigma) in PBS] are added. After incubation for 4 hours at 37 °C, the absorbance at 570 nm is determined on a TECAN infinite M200 microplate reader.

M2 transmembrane channel = conditions: cited from earlier work
Stathmin = assay: RTqPCR gene expression of Stathmin; assay type: cell-based
Description: (§2) Total RNA is extracted using TRIzol Reagent (Invitrogen) and reverse transcribed with qScript cDNA Synthesis Kit (Quanta BioSciences, Beverly, MA) according to the manufacturer's instructions. Quantitative PCR analysis is conducted by using KAPA SYBR […] FAST (KAPA Biosystems, Wilmington, MA) on the 7900HT Fast Real-Time PCR System (Applied Biosystems, Foster City, CA).

MHC = assay: surface expression of MHC (flow cytometry), multiple cell lines
B16-OVA = assay: BrdU incorporation / cell proliferation assay in B16-OVA; assay type: cell-based; conditions: for G0/G1 cell cycle arrest / S phase: BrdU, alone
Description: (§3) [LEFT OUT]. Louis, MO) (27).
as §1

MHC I = conditions: E5-positive AT-84-E7
[4] = target: T1, NR1/NR2B ionotropic receptor (Homo sapiens, UniProt Q05586+Q13224); assay: ScreenPatch IonWorks Barracuda electrophysiology assay on NR1/NR2B; assay type: cell-based; conditions: for relative inhibition of NR2B: comparison of enantiomers and racemate, words
T1 construct: expressed in transfected cells
T1 sequence (Q13224 27-1484, other chains not shown): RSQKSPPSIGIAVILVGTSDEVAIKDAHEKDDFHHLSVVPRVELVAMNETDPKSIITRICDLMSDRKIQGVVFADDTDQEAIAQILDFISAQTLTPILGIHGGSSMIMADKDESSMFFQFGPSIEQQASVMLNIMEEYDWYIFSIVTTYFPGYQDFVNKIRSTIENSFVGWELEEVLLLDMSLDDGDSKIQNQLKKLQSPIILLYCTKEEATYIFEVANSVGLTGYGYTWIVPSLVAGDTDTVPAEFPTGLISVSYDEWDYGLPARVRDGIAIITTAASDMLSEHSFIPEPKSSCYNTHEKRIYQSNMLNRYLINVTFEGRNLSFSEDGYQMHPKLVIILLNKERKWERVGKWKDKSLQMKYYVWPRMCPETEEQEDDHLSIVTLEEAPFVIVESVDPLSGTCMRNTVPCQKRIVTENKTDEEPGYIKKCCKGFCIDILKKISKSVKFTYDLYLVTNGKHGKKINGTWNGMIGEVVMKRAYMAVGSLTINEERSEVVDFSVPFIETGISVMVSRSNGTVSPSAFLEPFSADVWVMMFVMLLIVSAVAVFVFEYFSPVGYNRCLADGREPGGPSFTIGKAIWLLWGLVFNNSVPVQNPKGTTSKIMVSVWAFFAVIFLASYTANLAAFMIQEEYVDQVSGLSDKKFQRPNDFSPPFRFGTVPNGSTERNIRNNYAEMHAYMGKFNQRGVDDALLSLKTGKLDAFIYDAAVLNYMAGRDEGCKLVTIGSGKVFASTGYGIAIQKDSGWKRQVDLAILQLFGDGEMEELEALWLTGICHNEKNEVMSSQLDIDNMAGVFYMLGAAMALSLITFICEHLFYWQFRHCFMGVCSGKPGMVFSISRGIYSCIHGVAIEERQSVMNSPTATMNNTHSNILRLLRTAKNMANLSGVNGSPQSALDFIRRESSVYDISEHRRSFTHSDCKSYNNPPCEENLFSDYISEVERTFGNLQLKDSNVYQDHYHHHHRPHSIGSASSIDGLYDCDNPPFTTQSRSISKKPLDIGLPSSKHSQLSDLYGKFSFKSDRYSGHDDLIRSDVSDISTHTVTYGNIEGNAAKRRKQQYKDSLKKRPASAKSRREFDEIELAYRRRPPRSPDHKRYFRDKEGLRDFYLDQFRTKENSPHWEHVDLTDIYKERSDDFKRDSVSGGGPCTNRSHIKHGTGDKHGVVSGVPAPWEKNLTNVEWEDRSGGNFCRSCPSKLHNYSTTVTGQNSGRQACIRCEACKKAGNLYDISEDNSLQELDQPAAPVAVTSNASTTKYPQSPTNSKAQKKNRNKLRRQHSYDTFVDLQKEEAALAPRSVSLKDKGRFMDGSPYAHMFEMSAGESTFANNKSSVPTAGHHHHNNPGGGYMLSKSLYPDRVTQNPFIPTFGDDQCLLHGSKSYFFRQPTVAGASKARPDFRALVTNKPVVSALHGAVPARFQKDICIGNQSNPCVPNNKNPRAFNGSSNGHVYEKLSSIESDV
Description: (§4) Test articles were evaluated for functional effects on ion channels.
(§5) The final DMSO concentration was 0.6%.
(§6) Adjusted to pH 7.2 with CsOH.

[5] = in vivo CNS adverse effects / toxicity (Examples 4 and 5); design: species or system mouse
B16-OVA tumor = assay: mouse tumor model B16-OVA, IP treatment; conditions: in combination with anti-PDL1 immunotherapy; B16-OVA tumors
AT-84-E7 = assay: BrdU incorporation / cell proliferation assay in AT-84-E7; assay type: cell-based; conditions: for G0/G1 cell cycle arrest / S phase: BrdU, alone
Description: as §3, §1

[6] = system: glutamate, GABA, dopamine receptors; assay: in vivo SPECT receptor binding selectivity (Examples 4 and 5); design: species or system mouse
tumor = assay: mouse cancer models, general anti-tumor activity; assay type: in vivo; conditions: alone
Tau = assay: RTqPCR gene expression of Tau; assay type: cell-based
Description: as §2

CAL-27 cells = assay: CAL-27 in vitro MTT proliferation assay; assay type: cell-based, human; conditions: 0, 100, 250 or 500 μM, 24 or 48 hours
Description: On day 1, CAL-27 cells were seeded in a 96-well plate (2-4×10^3 cells/well, medium 100 μl/well) and left overnight to allow the cells to attach to the plate. On day 2, varying concentrations of rimantadine (0 μM, 100 μM, 250 μM, or 500 μM) were added to the cells and allowed to incubate for 24 hours or 48 hours. On either day 3 or 4, the culture media was aspirated, and 100 μl/well of MTT solution (comprising an MTT concentration of 0.5 mg/ml; formed by dilution of thiazolyl blue tetrazolium bromide solution (SIGMA, Cat #M2128) with stock solution (5 mg/ml in PBS (−20 °C)) was added to the culture media. The cells were incubated in a CO2 incubator at 37 °C for 3 hours, and the MTT solution was aspirated. 100 μl/well of DMSO was then added and the cells were incubated for about 5 minutes. A OD570 nm (Ref 650 nm) was then read. Results of the experiment are shown in FIG. 2.

[7] = target: T2, NR1/NR2A ionotropic receptor (Homo sapiens, UniProt Q05586+Q12879); assay: ScreenPatch IonWorks Barracuda electrophysiology assay on NR1/NR2A; assay type: cell-based
T2 construct: expressed in transfected cells
T2 sequence (Q12879 23-1464, other chains not shown): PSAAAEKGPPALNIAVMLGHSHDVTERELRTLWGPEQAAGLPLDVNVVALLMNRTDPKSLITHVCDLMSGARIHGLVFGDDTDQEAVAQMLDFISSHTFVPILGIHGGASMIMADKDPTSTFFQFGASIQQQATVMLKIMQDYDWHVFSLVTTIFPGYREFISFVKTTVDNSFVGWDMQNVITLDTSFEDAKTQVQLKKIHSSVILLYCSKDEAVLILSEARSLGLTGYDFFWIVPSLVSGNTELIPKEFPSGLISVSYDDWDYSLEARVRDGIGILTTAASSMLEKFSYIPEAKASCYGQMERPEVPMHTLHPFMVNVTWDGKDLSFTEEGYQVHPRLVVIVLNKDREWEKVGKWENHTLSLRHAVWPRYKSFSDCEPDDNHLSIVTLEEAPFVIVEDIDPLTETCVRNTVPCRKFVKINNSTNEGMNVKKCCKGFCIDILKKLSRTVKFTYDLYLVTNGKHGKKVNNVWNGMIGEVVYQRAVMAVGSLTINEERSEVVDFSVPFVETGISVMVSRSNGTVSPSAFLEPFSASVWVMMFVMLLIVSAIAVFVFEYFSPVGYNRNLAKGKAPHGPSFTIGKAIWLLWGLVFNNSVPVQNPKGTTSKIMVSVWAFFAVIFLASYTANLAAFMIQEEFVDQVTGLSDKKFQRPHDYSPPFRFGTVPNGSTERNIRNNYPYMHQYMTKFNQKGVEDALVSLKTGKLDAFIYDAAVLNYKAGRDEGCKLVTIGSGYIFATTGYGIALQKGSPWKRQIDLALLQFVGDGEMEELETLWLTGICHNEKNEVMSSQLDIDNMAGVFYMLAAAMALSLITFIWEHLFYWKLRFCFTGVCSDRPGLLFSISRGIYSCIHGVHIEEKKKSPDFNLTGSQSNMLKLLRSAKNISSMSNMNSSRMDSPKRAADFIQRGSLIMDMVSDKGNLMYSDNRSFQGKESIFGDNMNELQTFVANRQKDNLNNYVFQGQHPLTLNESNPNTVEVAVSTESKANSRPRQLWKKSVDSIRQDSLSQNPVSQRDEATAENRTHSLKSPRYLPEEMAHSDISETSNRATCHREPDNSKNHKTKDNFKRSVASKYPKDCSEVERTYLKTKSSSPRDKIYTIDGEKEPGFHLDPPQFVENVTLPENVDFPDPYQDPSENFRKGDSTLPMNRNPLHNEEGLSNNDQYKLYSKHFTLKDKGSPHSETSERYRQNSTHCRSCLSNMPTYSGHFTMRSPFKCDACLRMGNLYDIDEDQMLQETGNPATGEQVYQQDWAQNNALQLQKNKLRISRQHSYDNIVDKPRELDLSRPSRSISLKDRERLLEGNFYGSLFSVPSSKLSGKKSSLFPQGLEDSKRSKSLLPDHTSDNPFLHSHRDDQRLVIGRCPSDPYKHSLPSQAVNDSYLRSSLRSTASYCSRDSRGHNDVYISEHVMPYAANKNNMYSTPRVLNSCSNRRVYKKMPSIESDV
Description: as §4, §5, §6

D2/3 dopamine receptor = conditions: radioligand; cited from earlier work
CAL-27 = assay: BrdU incorporation and proliferation assays in CAL-27; assay type: cell-based, human; conditions: alone
Description: as §3, §1

SCC-47 = assay: BrdU incorporation and proliferation assays in SCC-47; assay type: cell-based, human; conditions: alone
Description: as §3, §1

CAL-33 = assay: BrdU incorporation and proliferation assays in CAL-33; assay type: cell-based, human; conditions: alone
Description: as §3, §1

[8] = agonist format, first application, data not shown

| SMILES | cell cycle arrest [2] | MHC class I surface expression (MHC class I) | MHC class II surface expression (MHC class II) | fold induction at 100 µM [3] | Stathmin gene expression (Stathmin) | surface expression of MHC (MHC) | cell proliferation (B16-OVA) | G0/G1 cell cycle arrest (B16-OVA) | S phase (B16-OVA) | cell surface expression of MHC I (MHC I) | relative inhibition of NR2B [4] | survival (B16-OVA tumor) | cell proliferation (AT-84-E7) | G0/G1 cell cycle arrest (AT-84-E7) | S phase (AT-84-E7) | anti-tumor activity (tumor) | Tau gene expression (Tau) | also measured |
| --- | --- | --- | --- | --- | --- | --- | --- | --- | --- | --- | --- | --- | --- | --- | --- | --- | --- | --- |
| CC(N)C12CC3CC(CC(C3)C1)C2 (racemic) [racemic rimantadine] | – | – | – | – | – | – | – | – | – | – | – | – | – | – | – | – | – | side effects ([1]; currently prescribed doses): central nervous system (CNS) side effects, sleep side effects, gastrointestinal side effects, and atropinic side effects; most commonly cited toxicities for discontinuation of treatment ([1]; in vivo): Anxiety and insomnia |
| C[C@@H](N)C12CC3CC(CC(C3)C1)C2 [2-R rimantadine] | induce cell cycle arrest | significant increases | significant increases | 3 | significant decreases | Significant increases in surface expression of MHC | Suppression of cell proliferation | significant increases in G0/G1 cell cycle arrest | significant decreases in S phase | restored | greater ability to inhibit NR2B as compared to racemic rimantadine | significant improvement in survival | Suppression of cell proliferation | significant increases in G0/G1 cell cycle arrest | significant decreases in S phase | significantly decreased tumor growth | Decreases in microtubule associated molecule Tau | binding affinity for M2 channel pore (M2 transmembrane channel; one study, R- vs S-enantiomer): greater affinity than the S-enantiomer; incidence of central nervous system adverse effects ([5]; Example 4): higher incidence of central nervous system adverse effects; binding selectivity or agonistic behavior to glutamate, GABA, dopamine receptors ([6]; Example 4, 10-20 mg/kg IP daily 7 days): significantly higher binding selectivity or agonistic behavior |
| C[C@H](N)C12CC3CC(CC(C3)C1)C2 [2-S rimantadine] | induce cell cycle arrest | significant increases | significant increases | 3 | significant decreases | Significant increases in surface expression of MHC | Suppression of cell proliferation | significant increases in G0/G1 cell cycle arrest | significant decreases in S phase | restored | to a lesser degree as compared to 2-R rimantadine and racemic rimantadine | significant improvement in survival | Suppression of cell proliferation | significant increases in G0/G1 cell cycle arrest | significant decreases in S phase | significantly decreased tumor growth | Decreases in microtubule associated molecule Tau | cancer cell proliferation compared to R-rimantadine or racemic rimantadine (CAL-27 cells): enhanced or equivalent cancer cell proliferation as compared to R-rimantadine or racemic rimantadine; toxicity compared to 2-R rimantadine ([5]; Example 4, taken together with Example 2): significantly less toxic; incidence of central nervous system adverse effects ([5]; Example 5): higher incidence of central nervous system adverse effects; toxicity compared to 2-R rimantadine ([5]; Example 5, taken together with Example 2): significantly less toxic; binding selectivity or agonistic behavior to glutamate, GABA, dopamine receptors ([6]; Example 5, 10-20 mg/kg IP daily 7 days): significantly higher binding selectivity or agonistic behavior |
| NC12CC3CC(CC(C3)C1)C2 [Amantadine] | – | – | – | – | – | – | – | – | – | – | – | – | – | – | – | – | – | agonist effect: activation of NMDA receptors [7, 8]: Neither test articles nor amantadine had produced significant activation of NMDA receptors; shift in potency for steady state vs peak currents ([7]; suggests open channel block mechanism of inhibition): Leftward shift in amantadine potency for steady state currents measurements; agonist effect: activation of NMDA receptors [4, 8]: Neither test articles nor amantadine had produced significant activation of NMDA receptors |
| CCN1CCC[C@H]1CNC(=O)c1c(OC)ccc(I)c1O [IBZM] | – | – | – | – | – | – | – | – | – | – | – | – | – | – | – | – | – | affinity for the D2/3 dopamine receptor (D2/3 dopamine receptor): high affinity |
| CC(N)C12CC3CC(CC(C3)C1)C2 (stereo not shown) [rimantadine] | – | – | – | – | – | – | – | – | – | – | – | – | – | – | – | – | – | inhibition of influenza activity (M2 transmembrane channel; by binding M2 transmembrane channel and blocking proton transport): inhibits influenza activity; cell cycle arrest (CAL-27): Significant cell cycle arrest; proliferation (CAL-27): decreased proliferation; cell cycle arrest (SCC-47): Significant cell cycle arrest; proliferation (SCC-47): decreased proliferation; cell cycle arrest (CAL-33): Significant cell cycle arrest; proliferation (CAL-33): decreased proliferation |
